From patent US20230181580A1, “TREATMENT OF PROLIFERATIVE DISEASES OF THE CNS” (AUCENTRA THERAPEUTICS PTY LTD, priority 2020, published 2023)

How the values were obtained:
[1] = test system: GBM patient-derived G4T cells; test: Orthotopic GBM patient-derived G4T xenograft; type: in vivo, NSG mice; conditions: single agent or with TMZ; p<0.001
Protocol: In a separate study, NSG mice (n=8) orthotopically engrafted with GBM patient-derived G4T cells were administered with vehicle, compound 1, TMZ, and co-treatment of compound 1 and TMZ, respectively, as shown in FIG. 6B. The disease burden of each of the treatment groups was measured by bioluminescent whole-body imaging.

H460 = test: MTT proliferation assay, lung; type: cell-based; conditions: Homo sapiens, NCI-H460, 72 h, read-out: Antiproliferative activity GI50 H460
Description: (§1) Representative compounds from Example 1, were subjected to standard MTT (3-(4,5-dimethylthiazol-2-yl)-2,5-diphenyltetrazolium bromide) and resazurin assays on solid tumour cell lines (including GBM cell lines) and leukemia cell lines, respectively, as previously reported (Wang S et al., J Med Chem 47:1662-1675, 2004; and Diab S. et al. CheMedChem 9:962-972, 2014).

A2780 = test: MTT proliferation assay, ovarian; type: cell-based; conditions: Homo sapiens, 72 h, read-out: Antiproliferative activity GI50 A2780
Description: as §1

Colo205 = test: MTT proliferation assay, colorectal; type: cell-based; conditions: Homo sapiens, COLO 205, 72 h, read-out: Antiproliferative activity GI50 Colo205
Description: as §1

T98G = test: MTT proliferation assay, glioblastoma; type: cell-based; conditions: Homo sapiens, 72 h, read-out: Antiproliferative activity GI50 T98G
Protocol: (§2) All three GBM cell lines used in this example, namely U87, U251 and T98G, were cultured in Eagle's Minimum Essential Medium (EMEM) with 10% fetal bovine serum in 75 cm^2 flasks at 37° C. and 5% CO2. All cell lines were confirmed to be mycoplasma-free prior to any experiment setup.
as §1

U251 = test: MTT proliferation assay, glioblastoma; type: cell-based; conditions: Homo sapiens, U-251, 72 h, read-out: Antiproliferative activity GI50 U251
Protocol: as §2, §1

U87 = test: MTT proliferation assay, glioblastoma; type: cell-based; conditions: Homo sapiens, U-87 MG, 72 h, read-out: Antiproliferative activity GI50 U87
Protocol: as §2, §1

GBM U87 cells = test: Annexin V/PI apoptosis assay; type: cell-based; conditions: 5 μM, 48 hours, with or without 5 μM TMZ
Protocol: The ability of compound 1 to induce apoptosis in GBM cells was investigated using the annexin V-FITC apoptosis detection kit I (BD Pharmingen Inc.; San Diego, Calif., United States of America) according to the manufacturer's protocol. Cell pellets were washed twice with 1 mL cold PBS and centrifuged at 300×g for 5 mins. Following the removal of supernatants, cell pellets were stained with 100 μL 1× annexin V binding buffer, 3 μL annexin V-FITC and 3 μL propidium iodide staining solution, and incubated in the dark at room temperature for 15 mins. The percentage of apoptic cells was measured by a CytoFLEX flow cytometer.

MB453 = test: MTT proliferation assay, breast; type: cell-based; conditions: 72 h, read-out: Antiproliferative activity GI50 MB453
Description: as §1

`CNc1nc(C)c(-c2nc(Nc3ccc(N4CCC(N(C)C)CC4)cn3)ncc2F)s1` [Compound 1, 5-(2-((5-(4-(dimethylamino)piperidin-1-yl)pyridin-2-yl)amino)-5-fluoropyrimidin-4-yl)-N,4-dimethylthiazol-2-amine] was tested, and the “inhibition of tumour growth (bioluminescent imaging)” value [1] was “significant inhibition of tumour growth either as a single agent or in combination with TMZ”, the GI50 (H460) was 3280 nM and the GI50 (A2780) was 70 nM. For the same compound, the GI50 (Colo205) was 2320 nM, the GI50 (T98G) was 2960 nM and the GI50 (U251) was 5520 nM. For the same compound, the GI50 (U87) was 4460 nM, the “induction of apoptosis (annexin V/PI)” value (GBM U87 cells) was “capable of inducing apoptosis in GBM cells to a greater level than the control anti-cancer agent, palbociclib” and the GI50 (MB453) was 330 nM.
